Data: US4196205A, “3-Acetoxymethyl-7-(iminoacetamido)-cephalosporanic acid derivatives” (priority 1976, dated 1980)
≈ marks a conversion by molar mass, not a printed value. Where two headings read alike, the source gives them in different places.

Assays:
Assay in all cases: MIC, dilution in liquid medium
Assay type in all cases: cell-based
[1] = system: Bacillus subtilis ATCC 6 633; details: Bacillus subtilis
Description: (§1) The method used was a dilution of a liquid medium where a series of tubes received the same quantity of a sterile nutritive media and increasing doses of the test compounds were placed therein. Then each tube was seeded with a bacterial strain and was incubated for 24 to 48 hours at 37° C. in an oven. The increasing inhibition was determined by transillumination to determine the minimum inhibiting concentration (MIC in […]) and the results are reported in the following Tables.

[2] = system: Escherichia Coli Resistant Gentamicine, Tobramycine R 55 123 D; details: Escherichia coli, read-out: M.I.C.
Description: as §1

[3] = system: Escherichia Coli Exp. TO26 B6; details: Escherichia coli
Description: as §1

[4] = system: Klebsiella pneumoniae 2 536 Resistant Gentamicine; details: Klebsiella pneumoniae
Description: as §1

[5] = system: Staphylococcus aureus UC 1 128 Pen-Resistant; details: Staphylococcus aureus
Description: as §1

[6] = system: Escherichia Coli Sensible Tetracycline ATCC 9 637 = 1020; details: Escherichia coli
Description: as §1

[7] = system: Salmonella typhimurium 420; details: Salmonella enterica, TYPHIMURIUM, 24 h
Description: as §1

Providencia Du 48 = details: Providencia
Description: as §1

[8] = system: Proteus mirabilis (indol-) A 235; details: Proteus mirabilis
Description: as §1

[9] = system: Streptococcus faecalis 99 F 74; details: Enterococcus faecalis
Description: as §1

[10] = system: Escherichia Coli Resistant Tetracycline ATCC 11 303 = UC 1261; details: Escherichia coli
Description: as §1

[11] = system: Streptococcus faecalis 5 432
Description: as §1

[12] = system: Staphylococcus aureus exp. n° 54 146; details: Staphylococcus aureus
Description: as §1

[13] = system: Klebsiella pneumoniae Exp. 52 145; details: Klebsiella pneumoniae
Description: as §1

[14] = system: Pseudomonas 3 935 Exp. SG; details: Pseudomonas, 3935EXP.SG
Description: as §1

[15] = system: Streptococcus pyogenes A 561; details: Streptococcus pyogenes
Description: as §1

[16] = system: Staphylococcus aureus ATCC 5 638 Pen-Sensible = UC 1061
Description: as §1

[17] = system: Proteus vulgaris (indol+) A 232; details: Proteus vulgaris
Description: as §1

[18] = system: Serratia Resistant Gentamicine 2 532
Description: as §1

In the case of `CO/N=C(/C(=O)NC1C(=O)N2C(C(=O)O)=C(COC(C)=O)CSC12)c1csc(N)n1` (stereo not drawn) [Product A, anti isomer of 3-acetoxymethyl-7-[2-(2-amino-4-thiazolyl)-2-methoxyimino-acetamido]-ceph-3-eme-4-carboxylic acid], the MIC ([1]; ATCC6, 24 h, 24 H) is reported as 20 µg/mL (≈ 43.9 µM), the MIC ([1]; ATCC6, 48 h, 48 H) is reported as 20 µg/mL (≈ 43.9 µM) and the MIC ([2]; 24 h) is reported as 10 µg/mL (≈ 22 µM). The MIC ([2]; 48 h) was 10 µg/mL (≈ 22 µM), the MIC ([3]; 24 h) was 5 µg/mL (≈ 11 µM) and the MIC ([3]; 48 h) was 5 µg/mL (≈ 11 µM). For the same molecule, the MIC ([4]; 24 h) was over 40 µg/mL, the MIC ([4]; 48 h) was over 40 µg/mL and the MIC ([5]; UC1, 24 h, 24 H) was over 40 µg/mL. It also gave an MIC ([5]; UC1, 48 h, 48 H) of over 40 µg/mL, an MIC ([6]; ATCC9, 24 h, 24 H) of 20 µg/mL (≈ 43.9 µM) and an MIC ([6]; ATCC9, 48 h, 48 H) of 40 µg/mL (≈ 87.8 µM). For the same molecule, the MIC [7] was 20 µg/mL (≈ 43.9 µM), the MIC (Providencia Du 48; DU48, 24 h, 24 H) was 40 µg/mL (≈ 87.8 µM) and the MIC (Providencia Du 48; DU48, 48 h, 48 H) was over 40 µg/mL. For the same molecule, the MIC ([8]; 24 h) was 2 µg/mL (≈ 4.39 µM), the MIC ([8]; 48 h) was 2 µg/mL (≈ 4.39 µM) and the MIC ([9]; 99F74, 24 h, 24 H) was over 40 µg/mL. It also gave an MIC ([9]; 99F74, 48 h, 48 H) of over 40 µg/mL, an MIC ([10]; 24 h) of 2 µg/mL (≈ 4.39 µM) and an MIC ([10]; 48 h) of 2 µg/mL (≈ 4.39 µM). For the same molecule, the MIC ([11]; Enterococcus faecalis, 5432, 24 h, 24 H) was over 40 µg/mL, the MIC ([11]; Enterococcus faecalis, 5432, 48 h, 48 H) was over 40 µg/mL and the MIC ([12]; 24 h) was 40 µg/mL (≈ 87.8 µM). The MIC ([12]; 48 h) was 40 µg/mL (≈ 87.8 µM), the MIC ([13]; EXP.52145, 24 h, 24 H) was 1 µg/mL (≈ 2.2 µM) and the MIC ([13]; EXP.52145, 48 h, 48 H) was 1 µg/mL (≈ 2.2 µM). The MIC ([14]; 24 h) was over 40 µg/mL, the MIC ([14]; 48 h) was over 40 µg/mL and the MIC ([15]; A561, 24 h) was 0.4 µg/mL (≈ 0.878 µM). For the same molecule, the MIC ([15]; A561, 48 h) was 0.4 µg/mL (≈ 0.878 µM), the MIC ([16]; 24 h) was 40 µg/mL (≈ 87.8 µM) and the MIC ([16]; 48 h) was 40 µg/mL (≈ 87.8 µM). For the same molecule, the MIC ([17]; 24 h) was over 40 µg/mL, the MIC ([17]; 48 h) was over 40 µg/mL and the MIC ([18]; 24 h) was over 40 µg/mL. It also gave an MIC ([18]; 48 h) of over 40 µg/mL.
